Measurements as given in patent US5418218A, “Histidyl-proline diketopiperazine (cyclo his-pro) a cns-active pharmacologic agent” (The University of Maryland at Baltimore, priority 1992, dated 1995).

Columns and labels:
[1] = Weight loss activity of cyclic dipeptides; details: in vivo
From the text: As to the active ingredient, while the effect as to weight loss appears to be stereospecific, it is contemplated that alterations can be made to the compound to enhance the activities thereof contemplated to fall within the scope of the instant invention.

[2] = Oral cyclo (His-Pro) in drinking water, weight gain in rodents
[3] = Passage of the blood-brain barrier; type: in vivo; details: non-CNS administration
Method: Thus, it was determined in the development of the instant invention that cyclo (His-Pro), unlike the vast majority of biologics that are susceptible to degradation in the gastrointestinal tract, can be administered by those routes normally employed for drug administration, such as intramuscularly and intravenously, but also that cyclo (His-Pro) can be administered orally. […] Although not an absolute barrier of the passage of compounds into the brain, many compounds cross very slowly if at all to any effective extent.

[4] = system: pancreatic or intestinal enzymes; assay: Resistance to proteolytic digestion
[5] = Intraperitoneal cyclo (His-Pro), inhibition of appetite in animals receiving liquid diets; type: in vivo; details: intraperitoneally, 20 mg/kg/day for 24 days
[6] = Oral administration to rats, appearance in plasma; details: administered orally to rats
[7] = Stability in vivo and in drinking water
From the text: While it is known that the pyroglutamic acid residue often confers stability on a peptide carrying the same at a terminus, such as TRH, the precursor of cyclo (His-Pro), the pyroglutamic acid residue is not present in cyclo His-Pro.
The carrier(s) must be "acceptable" in the sense of being compatible with other ingredients of the formulation and not deleterious to the recipient thereof. […] Formulations suitable for administration conveniently comprise sterile aqueous solutions of the active chemical, which may be conveniently prepared by mixing the active chemical with water, and after rendering said solution sterile it may be presented in sealed containers.

[8] = cited from earlier work
[9] = Intracerebroventricular administration / lateral ventricle infusion, appetite and weight gain; type: in vivo, rodents; details: administered IVT acutely
[10] = oral in drinking water, versus control animals, P<0.02

Row | Compound | weight loss activity [1] | cause of weight loss (satiety versus illness) ([2]; experimental studies) | mean body weight reached by experimental animals ([2]; oral in drinking water, 1 or 2 mg/kg/day for 14 to 18 days, controls gained from a mean of 248 to 396 gms) [gms] | inhibition of weight gain [2, 10] [grams] | inhibition of weight gain (minus %) [2, 10] [%] | blood-brain barrier passage [3] | resistance to proteolytic digestion [4] | inhibition of appetite [5] | form appearing in plasma [6] | effectiveness after addition to water ([7]; added to water, such as drinking water from the tap) | enzymatic degradation in vivo ([7]; in vivo) | half-life ([7]; in vivo) | duration of appetite reduction ([8]; after intracerebroventricular administration to rodents) [h] | duration of inhibition of weight gain ([8]; infused into the lateral ventricle) [weeks] | duration of action [9]
1 | O=C(O)CCC1NC(=O)C(Cc2ccccc2)NC1=O (stereo not shown) [cyclo (Glu-Phe)] | did not provide weight loss activity | – | – | – | – | – | – | – | – | – | – | – | – | – | –
2 | O=C1N[C@@H](Cc2cnc[nH]2)C(=O)N2CCC[C@@H]12 [cyclo (His-Pro), L-histidyl-L-proline diketopiperazine] | – | due to induction of satiety, not of nausea, vomiting or illness | 384 | 12 | 8.1 | crosses the blood-brain barrier to achieve effective concentrations in a short period of time | uniquely resistant to proteolytic digestion | can induce inhibition of appetite | completely unaltered biochemically | retain effectiveness | resistant to enzymatic degradation in vivo | long half-life | ≤ 12 | 2 | about 12 hours
3 | O=C1[C@@H]2CCCN2C(=O)[C@@H]2CCCN12 [cyclo (Pro-Pro)] | did not provide weight loss activity | – | – | – | – | – | – | – | – | – | – | – | – | – | –
